Assay results from US10828315B2 (Madrigal Pharmaceuticals, Inc., priority 2013, dated 2020).
pIC50: −log10 of the molar value.

Tested on: HER2
Assay: HER2 degradation assay with BT-474 cell line (Example 12, FACS)
Type: cell-based, human
Excerpt: HER2 has emerged as a key target for anticancer drugs due to its intrinsic involvement in the phosphatidylinositol-3-kinase-Akt/protein kinase B (PI3K-Akt) and the mitogen-activated protein kinase (MAPK) pathways, both of which suppress apoptosis and promote tumor cell survival, gene transcription, angiogenesis, cellular proliferation, migration, mitosis, and differentiation. The degradation of HER2 is a measure of efficacy of anticancer therapeutics that target Hsp90. Accordingly, the SDC-TRAP molecules of the invention that comprise a binding moiety that binds Hsp90 were tested in the following HER2 degradation assay.
BT-474 cells (human breast cancer cell line ATCC HTB-20) were obtained from ATCC and seeded into 12-well tissue culture plates at 0.2×10^6/1.8 mL/well. […] Each test compound was titrated in 4-fold dilutions from 5 μM to 78 nM with DMSO and 200 μL of the titration was added to each well of the cell plate. The DMSO final concentration was 0.2%. Cells were incubated overnight at 37° C. in 5% CO2.
Media was decanted from the plate, cells were washed 1× in PBS. 400 μL trypsin (EDTA) per well was added, and the cells were incubated for 2 to 3 minutes. Cells were collected into FACS tubes containing 1 ml culture medium to neutralize the trypsin and were centrifuged for 5 minutes at 1200 rpm. Supernatant was decanted and the cells were resuspended in 5 μL FITC (anti HER2/nu)/200 μL staining buffer (1×PBS+1% FBS+0.05% Sodium Azide)/tube. Controls were 5 μL IgG isotype control and staining buffer only. Tubes were incubated for 30 minutes in the dark at room temperature. 1 mL staining buffer was added to each tube and the tubes were centrifuged for 6 minutes at 1200 rpm. The supernatant was decanted and 300 μL staining buffer was added to each tube, which was store at 4° C. fpr FACS (cytometer) analysis. The cytometer readout was normalized and the potency of each compound is evaluated with IC50 calculated with XLfit™ software.

Row | SMILES | pIC50
1 | CCc1c2c(nc3ccc(O)cc13)-c1cc3c(c(=O)n1C2)COC(=O)C3(CC)OC(=O)N1CCN(C(=O)CCc2ccc(-n3c(O)nnc3-c3cc(C(C)C)c(O)cc3O)cc2)CC1 (stereo not drawn) [SDC-TRAP-0060, 4,11-diethyl-9-hydroxy-3,14-dioxo-3,4,12,14-tetrahydro-1H-pyrano[3′,4′:6,7]indolizino[1,2-b]quinolin-4-yl 4-(3-(4-(3-(2,4-dihydroxy-5-isopropylphenyl)-5-hydroxy-4H-1,2,4-triazol-4-yl)phenyl)propanoyl)piperazine-1-carboxylate] | < 5.30
2 | CCc1c2c(nc3ccc(O)cc13)-c1cc3c(c(=O)n1C2)COC(=O)C3(CC)OC(=O)N1CCN(Cc2ccc(-n3c(O)nnc3-c3cc(C(C)C)c(O)cc3O)cc2F)CC1 (stereo not drawn) [SDC-TRAP-0079, 4,11-diethyl-9-hydroxy-3,14-dioxo-3,4,12,14-tetrahydro-1H-pyrano[3′,4′:6,7]indolizino[1,2-b]quinolin-4-yl 4-(4-(3-(2,4-dihydroxy-5-isopropylphenyl)-5-hydroxy-4H-1,2,4-triazol-4-yl)-2-fluorobenzyl)piperazine-1-carboxylate] | 5.84
3 | CCc1c2c(nc3ccc(OC(=O)N(C)CC(=O)N4CCC(CCn5ccc6cc(-n7c(O)nnc7-c7cc(C(C)C)c(O)cc7O)ccc65)CC4)cc13)-c1cc3c(c(=O)n1C2)COC(=O)[C@]3(O)CC [SDC-TRAP-0207, (S)-4,11-diethyl-4-hydroxy-3,14-dioxo-3,4,12,14-tetrahydro-1H-pyrano[3′,4′:6,7]indolizino[1,2-b]quinolin-9-yl (2-(4-(2-(5-(3-(2,4-dihydroxy-5-isopropylphenyl)-5-hydroxy-4H-1,2,4-triazol-4-yl)-1H-indol-1-yl)ethyl)piperidin-1-yl)-2-oxoethyl)(methyl)carbamate] | < 5.30
4 | CCc1c2c(nc3ccc(OC(=O)N4CCC(N5CCN(c6ccc(-n7c(O)nnc7-c7cc(C(C)C)c(O)cc7O)cc6)CC5)CC4)cc13)-c1cc3c(c(=O)n1C2)COC(=O)C3(O)CC (stereo not drawn) [SDC-TRAP-0101, 4,11-diethyl-4-hydroxy-3,14-dioxo-3,4,12,14-tetrahydro-1H-pyrano[3′,4′:6,7]indolizino[1,2-b]quinolin-9-yl 4-(4-(4-(3-(2,4-dihydroxy-5-isopropylphenyl)-5-hydroxy-4H-1,2,4-triazol-4-yl)phenyl)piperazin-1-yl)piperidine-1-carboxylate] | 6.55
5 | CC(C)c1cc(-c2nnc(O)n2-c2ccc(CN3CCN(C(=O)Oc4ccc5c(c4)C[C@@H](CCCCCCCCC[S+]([O-])CCCC(F)(F)C(F)(F)F)[C@@H]4[C@@H]5CC[C@]5(C)[C@@H](O)CC[C@@H]45)CC3)cc2)c(O)cc1O (stereo partly drawn) [SDC-TRAP-0148, (7R,8R,9S,13S,14S,17S)-17-hydroxy-13-methyl-7-(9-((4,4,5,5,5-pentafluoropentyl)sulfinyl)nonyl)-7,8,9,11,12,13,14,15,16,17-decahydro-6H-cyclopenta[a]phenanthren-3-yl 4-(4-(3-(2,4-dihydroxy-5-isopropylphenyl)-5-hydroxy-4H-1,2,4-triazol-4-yl)benzyl)piperazine-1-carboxylate] | 5.52
6 | CCc1c2c(nc3ccc(OC(=O)N4CCN(c5ccc(-n6c(O)nnc6-c6cc(C(C)C)c(O)cc6O)cn5)CC4)cc13)-c1cc3c(c(=O)n1C2)COC(=O)[C@]3(O)CC [SDC-TRAP-0090, (S)-4,11-diethyl-4-hydroxy-3,14-dioxo-3,4,12,14-tetrahydro-1H-pyrano[3′,4′:6,7]indolizino[1,2-b]quinolin-9-yl 4-(5-(3-(2,4-dihydroxy-5-isopropylphenyl)-5-hydroxy-4H-1,2,4-triazol-4-yl)pyridin-2-yl)piperazine-1-carboxylate] | 5.34
7 | CCNC(=O)c1nnc(-c2cc(C(C)C)c(O)cc2O)n1-c1ccc(C(=O)N2CCN(c3ccc(OC(=O)Nc4cccc5c4CN(C4CCC(=O)NC4=O)C5=O)c(C)c3)CC2)cc1 (stereo not drawn) [SDC-TRAP-0176, 4-(4-(4-(3-(2,4-dihydroxy-5-isopropylphenyl)-5-(ethylcarbamoyl)-4H-1,2,4-triazol-4-yl)benzoyl)piperazin-1-yl)-2-methylphenyl (2-(2,6-dioxopiperidin-3-yl)-1-oxoisoindolin-4-yl)carbamate] | 6.75
8 | CCc1c2c(nc3ccc(OC(=O)N4CCN(Cc5cc6cc(-n7c(O)nnc7-c7cc(C(C)C)c(O)cc7O)ccc6n5C)CC4)cc13)-c1cc3c(c(=O)n1C2)COC(=O)C3(O)CC (stereo not drawn) [SDC-TRAP-0073, 4,11-diethyl-4-hydroxy-3,14-dioxo-3,4,12,14-tetrahydro-1H-pyrano[3′,4′:6,7]indolizino[1,2-b]quinolin-9-yl 4-((5-(3-(2,4-dihydroxy-5-isopropylphenyl)-5-hydroxy-4H-1,2,4-triazol-4-yl)-1-methyl-1H-indol-2-yl)methyl)piperazine-1-carboxylate] | 6.32
9 | CCc1c2c(nc3ccc(OC(C)=O)cc13)-c1cc3c(c(=O)n1C2)COC(=O)C3(CC)OC(=O)N1CCN(Cc2ccc(-n3c(O)nnc3-c3cc(C(C)C)c(O)cc3O)cc2)CC1 (stereo not drawn) [SDC-TRAP-0074, 9-acetoxy-4,11-diethyl-3,14-dioxo-3,4,12,14-tetrahydro-1H-pyrano[3′,4′:6,7]indolizino[1,2-b]quinolin-4-yl 4-(4-(3-(2,4-dihydroxy-5-isopropylphenyl)-5-hydroxy-4H-1,2,4-triazol-4-yl)benzyl) piperazine-1-carboxylate] | 5.39
10 | CCc1c2c(nc3ccc(OC(=O)N(C)CCNC(=O)c4nnc(-c5cc(C(C)C)c(O)cc5O)n4-c4cccnc4)cc13)-c1cc3c(c(=O)n1C2)COC(=O)C3(O)CC (stereo not drawn) [SDC-TRAP-0112, 4,11-Diethyl-4-hydroxy-3,14-dioxo-3,4,12,14-tetrahydro-1H-pyrano[3′,4′:6,7]indolizino[1,2-b]quinolin-9-yl (2-(5-(2,4-dihydroxy-5-isopropylphenyl)-4-(pyridin-3-yl)-4H-1,2,4-triazole-3-carboxamido)ethyl)(methyl)carbamate] | < 5.30
11 | CCc1c2c(nc3ccc(OC(=O)N4CCC(N5Cc6ccc(-n7c(O)nnc7-c7cc(C(C)C)c(O)cc7O)cc6C5)CC4)cc13)-c1cc3c(c(=O)n1C2)COC(=O)[C@]3(O)CC [SDC-TRAP-0089, (S)-4,11-diethyl-4-hydroxy-3,14-dioxo-3,4,12,14-tetrahydro-1H-pyrano[3′,4′:6,7]indolizino[1,2-b]quinolin-9-yl 4-(5-(3-(2,4-dihydroxy-5-isopropylphenyl)-5-hydroxy-4H-1,2,4-triazol-4-yl)isoindolin-2-yl)piperidine-1-carboxylate] | 5.83
12 | CCc1c2c(nc3ccc(O)cc13)-c1cc3c(c(=O)n1C2)COC(=O)[C@@]3(CC)OC(=O)N1CCC(N2Cc3ccc(-n4c(O)nnc4-c4cc(C(C)C)c(O)cc4O)cc3C2)CC1 [SDC-TRAP-0092, (S)-4,11-diethyl-9-hydroxy-3,14-dioxo-3,4,12,14-tetrahydro-1H-pyrano[3′,4′:6,7]indolizino[1,2-b]quinolin-4-yl 4-(5-(3-(2,4-dihydroxy-5-isopropylphenyl)-5-hydroxy-4H-1,2,4-triazol-4-yl)isoindolin-2-yl)piperidine-1-carboxylate] | 5.33
13 | CCc1c2c(nc3ccc(OC(=O)N4CCC(c5nc6cc(-n7c(O)nnc7-c7cc(C(C)C)c(O)cc7O)ccc6n5C)CC4)cc13)-c1cc3c(c(=O)n1C2)COC(=O)C3(O)CC (stereo not drawn) [SDC-TRAP-0095, 4,11-diethyl-4-hydroxy-3,14-dioxo-3,4,12,14-tetrahydro-1H-pyrano[3′,4′:6,7]indolizino[1,2-b]quinolin-9-yl 4-(5-(3-(2,4-dihydroxy-5-isopropylphenyl)-5-hydroxy-4H-1,2,4-triazol-4-yl)-1-methyl-1H-benzo[d]imidazol-2-yl)piperidine-1-carboxylate] | < 5.30
14 | CCc1c2c(nc3ccc(OC(C)=O)cc13)-c1cc3c(c(=O)n1C2)COC(=O)C3(CC)OC(=O)N(C)CCCCN1CCN(Cc2ccc(-n3c(O)nnc3-c3cc(C(C)C)c(O)cc3O)cc2)CC1 (stereo not drawn) [SDC-TRAP-0181, 4-(((4-(4-(4-(3-(2,4-Dihydroxy-5-isopropylphenyl)-5-hydroxy-4H-1,2,4-triazol-4-yl)benzyl)piperazin-1-yl)butyl)(methyl)carbamoyl)oxy)-4,11-diethyl-3,14-dioxo-3,4,12,14-tetrahydro-1H-pyrano[3′,4′:6,7]indolizino[1,2-b]quinolin-9-yl acetate] | 6.79
15 | CCNC(=O)c1nnc(-c2cc(C(C)C)c(O)cc2O)n1-c1ccc(CN2CCC(C(=O)N(C)CCC(=O)OC3(CC)C(=O)OCc4c3cc3n(c4=O)Cc4c-3nc3ccc(O)cc3c4CC)CC2)cc1 (stereo not drawn) [SDC-TRAP-0100, 4,11-Diethyl-9-hydroxy-3,14-dioxo-3,4,12,14-tetrahydro-1H-pyrano[3′,4′:6,7]indolizino[1,2-b]quinolin-4-yl 3-(1-(4-(3-(2,4-dihydroxy-5-isopropylphenyl)-5-(ethylcarbamoyl)-4H-1,2,4-triazol-4-yl)benzyl)-N-methylpiperidine-4-carboxamido)propanoate] | 7.10
